Measurements taken from patent US20140271649A1, “METHODS AND COMPOSITIONS FOR INHIBITING STAPHYLOCOCCUS AGGLUTINATION IN BLOOD” (The University of Chicago, priority 2011, published 2014).

Assays:
S. aureus Newman [1] = assay: Heart tissue histopathology 12 hours after S. aureus Newman infection; type: in vivo, BALB/c mice
S. aureus coa/vwb mutant = assay: Mouse sepsis survival, S. aureus coa/vwb mutant challenge; type: in vivo, BALB/c mice; settings: 10 mg/kg i.p. every 12 h, vs mock
Protocol: (§1) Sepsis. Overnight cultures of staphylococcal strains were diluted 1:100 into fresh TSB and grown until they reached an OD600 of 0.4. Bacteria were centrifuged at 7,000×g, washed, and suspended in the one-tenth volume of PBS. Six week-old female BALB/c mice (n=15) (Charles River) were injected retro-orbitally with 1×10^8 CFU (S. aureus Newman, MW2, and N315) or 5×10^7 CFU (S. aureus USA300) suspensions in 100 μl of PBS. Mice were monitored for survival over 10 days. To enumerate staphylococcal load in heart tissue twelve hours post-infection, mice were euthanized by CO2 asphyxyation and hearts were removed during necropsy. Heart tissue was homogenized in PBS, 0.1% Triton X-100. Serial dilutions of homogenate were spread on TSA and incubated for colony formation. The bacterial load in organ tissue was analyzed in pairwise comparisons between wild-type and mutant strains with the unpaired two-tailed Student's t-test. For histopathology, mice infected with S. aureus were euthanized 12 hours after infection. Hearts were removed during necropsy and fixed in 10% formalin for 24 hours at room temperature. […] Data were analyzed in pairwise comparisons between wild-type and mutant strains with the unpaired two-tailed Student's t-test. […]
(§2) Dabigatran etexilate treatment. […] Thrombin time was measured on a STA-R analyzer (Diagnostica Stago).

S. aureus Newman [2] = assay: Mouse sepsis survival, S. aureus Newman challenge; type: in vivo, BALB/c mice; settings: 10 mg/kg i.p. in 12 hour intervals, mock treated died within 60 hours
S. aureus USA300 LAC = assay: Mouse sepsis survival, S. aureus USA300 LAC challenge; type: in vivo, BALB/c mice; settings: 10 mg/kg i.p. every 12 h; lethal dose S. aureus USA300 LAC; vs mock
Protocol: as §1, §2

clfA (pclfA) variant = assay: Mouse sepsis survival, clfA (pclfA) variant challenge; type: in vivo, BALB/c mice
Protocol: as §1, §2

clfA mutant S. aureus = assay: Mouse sepsis survival, clfA mutant challenge; type: in vivo, BALB/c mice
Protocol: as §1, §2

S. aureus MW2 [3] = assay: Mouse sepsis survival, MRSA MW2 challenge; type: in vivo, BALB/c mice; settings: lethal challenge S. aureus MW2; Dbg 10 mg/kg, antibodies 5 mg/kg
Coa-prothrombin [4] = settings: literature (Hijikata-Okunomiya and Kataoka, 2003; Vanassche et al., 2010); cited from earlier work
S. aureus N315 [5] = assay: Mouse sepsis survival, MRSA N315 challenge; type: in vivo, BALB/c mice; settings: lethal challenge S. aureus N315; Dbg 10 mg/kg, antibodies 5 mg/kg
[6] = Serum IgG after active immunization (ELISA); type: in vivo, BALB/c mice; settings: 50 μg protein in CFA, boost in IFA
S. aureus MW2 [7] = assay: Agglutination assay in plasma, MRSA MW2; type: cell-based, Staphylococcus aureus; settings: argatroban (1 mg/mL), OD550 after two hours
S. aureus N315 [8] = assay: Agglutination assay in plasma, MRSA N315; type: cell-based, Staphylococcus aureus; settings: argatroban (1 mg/mL), OD550 after two hours
Coa-prothrombin [9] = assay: Coagulase activity: fibrinogen to fibrin conversion by Coa-prothrombin; type: biochemical, S. aureus / human; settings: 200 ng argatroban, absorbance at 450 nm
Protocol: (§3) Coagulase activity. Purified recombinant Coa or vWbp (100 nM) were mixed with human prothrombin (Innovative Research) in 1% sodium-citrate/PBS. After an initial reading, fibrinogen (3 μM) (Sigma) was added and conversion of fibrinogen to fibrin was measured as an increase in turbidity at 450 nm in a plate reader (BioTek) at 2.5 min intervals. As controls, the enzymatic activity of human alpha-thrombin (Innovative Research) or prothombin alone were measured. Argatroban (200 ng, Novaplus) was added to reactions prior to the addition of fibrinogen.

S. aureus Newman [10] = assay: Agglutination assay in plasma, S. aureus Newman; type: cell-based, Staphylococcus aureus; settings: argatroban treatment, increasing concentrations
Protocol: Agglutination assay. Overnight cultures of staphylococcal strains were washed in 1 mL 0.85% NaCl and suspended to a final concentration of OD600 4.0 in 1 mL. Bacteria were incubated with 1:500 Syto9 (Invitrogen) for 15 minutes, washed with 1 mL 0.85% NaCl, and suspended in 1 mL saline. Bacteria were mixed 1:1 with EDTA-chelated rabbit plasma (Becton, Dickinson) on a glass microscope slide and incubated for 15 minutes. Samples were viewed and images captured on an Olympus Provis microscope using a 40× objective. For quantification of agglutination, plasma and bacteria were inoculated onto polystyrene C-Chip disposable hemocytometer slides (IN-CYTO). […] For analysis, the largest aggregate in each field of view was outlined in ImageJ and the area of that aggregate measured. Mean area of S. aureus aggregates were determined and normalized by subtracting Newman in saline without plasma from all values. Percent agglutination was calculated by normalizing all mean intensity values to S. aureus Newman in plasma. […] Fold change in agglutination was calculated as the ratio of mean bacterial aggregation area in the presence of antibody compared to control. Statistical significance, P<0.05, was determined by one way analysis of variance (ANOVA), with Dunnett's multiple comparison analysis for post-hoc testing using GraphPad Prism software. […]

vWbp-prothrombin = biological target: T1, vWbp-prothrombin (Homo sapiens, UniProt P00734); assay: Coagulase activity: fibrinogen to fibrin conversion by vWbp-prothrombin; type: biochemical, S. aureus / human; settings: 200 ng argatroban, absorbance at 450 nm
T1 construct: purchased Innovative Research (prothrombin); host or cells: vWbp made in house in E. coli BL21(DE3), Ni-NTA purified
Protocol: as §3

human alpha-thrombin = human alpha-thrombin (Homo sapiens, UniProt P00734); assay: Coagulase activity control: fibrinogen to fibrin conversion by thrombin; type: biochemical; settings: 200 ng argatroban, absorbance at 450 nm, compared to mock control
Protocol: as §3

[11] = in vivo, sc; cited from earlier work

Compound: CCCCCCOC(=O)N=C(N)c1ccc(NCc2nc3cc(C(=O)N(CCC(=O)OCC)c4ccccn4)ccc3n2C)cc1 [dabigatran-etexilate]
- agglutination of staphylococcus in heart tissue (S. aureus Newman [1]; dabigatran-etexilate treatment, S. aureus Newman, 12 hours, histopathology): reduced agglutination
- survival or time-to-death (S. aureus coa/vwb mutant): no effect
- survival after challenge (S. aureus Newman [2]): up to 132 hours
- survival of septic mice (S. aureus USA300 LAC): prolonged the survival
- benefit from treatment (time-to-death) (clfA (pclfA) variant): benefited
- survival and time-to-death (clfA mutant S. aureus; clfA mutant challenge compared to control strain harboring pclfA): increased the survival and time-to-death
- disease outcome (clfA mutant S. aureus; clfA mutant challenge compared to mock treated mice): further improved the disease outcome

Compound: [H]/N=C(/N)c1ccc(NCc2nc3cc(C(=O)N(CCC(=O)O)c4ccccn4)ccc3n2C)cc1 [dabigatran]
- time-to-death / survival during sepsis (S. aureus MW2 [3]): did not prolong the survival
- inhibition of the proteolytically active Coa-prothrombin complex (Coa-prothrombin [4]): inhibit
- time-to-death / survival during sepsis (S. aureus N315 [5]): did not prolong the survival

Compound: ClfA: purified recombinant S. aureus clumping factor A; used in binding assay and as antigen for active immunization
- frequency of heart lesions (S. aureus Newman [1]; active immunization, challenged twelve hours with wild-type S. aureus Newman): reduced the frequency of heart lesions
- specific IgG antibodies after active immunization [6]: raised specific IgG antibodies

Compound: CC1CNc2c(cccc2S(=O)(=O)N[C@@H](CCCNC(=N)N)C(=O)N2CC[C@@H](C)C[C@@H]2C(=O)O)C1 (some centres unmarked) [argatroban]
- inhibition of the proteolytically active Coa-prothrombin complex (Coa-prothrombin [4]): inhibit
- agglutination of S. aureus MW2 in EDTA-plasma (S. aureus MW2 [7]): inhibited
- agglutination of S. aureus N315 in EDTA-plasma (S. aureus N315 [8]): inhibited
- conversion of fibrinogen to fibrin by Coa-prothrombin (Coa-prothrombin [9]): blocked
- agglutination of S. aureus Newman in plasma (S. aureus Newman [10]): interfered with the agglutination
- conversion of fibrinogen to fibrin by vWb-prothrombin (vWbp-prothrombin): blocked
- conversion of fibrinogen to fibrin by thrombin (human alpha-thrombin): blocked

Compound: N=C(N)c1ccc(CNC(=O)[C@@H]2CCN2C(=O)[C@H](NCC(=O)O)C2CCCCC2)cc1 [melagatran]
- dose at which toxicity began [11]: over 5 mg
